pIC50: −log10 of the molar value. Read-outs that look alike come from different tables or passages of the source.
Assays:
[1] = test system: cervical, ovarian, lung, breast, lymphoma, leukemia, colorectal carcinoma and NPC cell lines; parameters: method as in PMID 24549332; details: 24 h; HeLa, SKOV3, A549, PC9, MCF7, Namalwa, HL60, SW480, SW48, HCT118, HONE1, HK1, C666-1; cited from earlier work
[2] = Acute in vivo toxicity, single dose; parameters: species or system NOD scid gamma female mice
Method: Acute toxicity caused by the complex was tested on a method modified from the NCI single dose method. The experiment was performed to find the maximum tolerated dose (MTD) for the calculation of doses for repeat-dose animal testing; the experiment was designed to minimize both the use of compound tested and the number of animals to be sacrificed. […] Five doses, viz. 35.0, 17.5, 12.5, 7.5 and 5.5 mg/kg body weight of the Cu(II) complex, were injected intraperitoneally as single doses into each mouse respectively and the mice were observed daily for 14 days for drug-induced toxicity. The findings of the acute toxicity study are listed in S1 Table.
Determination of acute toxicity was carried out using a method adapted from the NCI [43]. Five mice were randomly separated into five cages. Five doses, i.e. 35.0, 17.5, 12.5, 7.5 and 5.5 mg/kg of body weight of Cu(II) complex were injected intraperitoneally as a single dose into each mouse respectively. After the drug administration, mice were observed hourly for any signs of toxicity, mortality, changes in general behavior and physical activities for the first 4 hours, then 4 hourly for 1 day followed by daily observation for 2 weeks. The signs which were monitored and recorded during this study included hypoactivity, lethargy, hypoapnoea, abnormal gait and posture, tremors, arching and rolling, convulsions, salivation and diarrhea. Mouse death during the period of observation was considered as death due to toxic effects of the test compound. The lethal dose and maximum tolerated dose (MTD) were determined during this study. At the end of the experiment, the survivors were sacrificed for necropsy. Gross and histopathological examinations were performed on the major internal organs including the heart, lung, liver, kidney and spleen.

[3] = test system: NCI60 human cancer cell line panel
rat primary hepatocytes = experiment: Cytotoxicity in rat primary hepatocytes (resazurin); details: 72 h
[4] = Subacute toxicity, daily for 14 days; type: in vivo, NOD scid gamma female mice; details: 4 and 6 mg/kg ip daily for 14 days
Method: For subacute toxicity study, three groups of three NSG female mice each were used. Using the formula from NCI, the low dose and high dose were calculated from the MTD value (17.5 mg/kg estimated above) and these were 4 and 6 mg/kg respectively. Mice in the first two groups were administered intraperitoneally with Cu(II) complex at doses of 4 and 6 mg/kg daily respectively for 14 days, while those in the control group received an equal volume of normal saline. […] No mortality was observed during the course of the study. All mice remained healthy with no obvious differences being noted in the general behavior, physical activities or clinical conditions with respect to the control group. The accumulative intraperitoneal doses administered in these groups were 56.0 and 84.0 mg/kg of the Cu(II) complex, respectively.
Mice were divided into three groups of 3 mice each. The Cu(II) complex was administered intraperitoneally at the doses of 4 and 6 mg/kg daily for 14 days, while the control group received an equal volume of normal saline. […] Signs of toxicity, mortality, body weight, food consumption and water intake were monitored and recorded daily. Adverse effects such as rapid or consistent body weight loss reaching 20%, blood stained discharges, labored breathing, paralysis, anemia, and other signs and symptoms mentioned in the acute toxicity study, was used as criteria for termination. At the end of the experiment, the mice were sacrificed and the major organs including the heart, lung, liver, kidney and spleen were examined for gross and histopathological changes.

CC(C)(N)C(=O)[O-].O.O=[N+]([O-])[O-].[Cu+2].c1cnc2c(c1)ccc1cccnc12 [Cu(II) complex, [Cu(phen)(C-dmg)(H2O)]NO3]
pIC50 [1]: 4.72 to 5.77 | Mortality ([2]; 5.5 mg/kg single ip dose): No | Observation of mice behavioral and physical changes (after injection) ([2]; 5.5 mg/kg single ip dose): No clinical signs occurred. It showed normal behavior patterns when provoked. | Observation of mice behavioral and physical changes (later) ([2]; 5.5 mg/kg single ip dose): Normal behavior and activities. | Mortality ([2]; 7.5 mg/kg single ip dose): No | Observation of mice behavioral and physical changes (after injection) ([2]; 7.5 mg/kg single ip dose): No abnormal clinical signs occurred. It showed normal behavior patterns when provoked. | Observation of mice behavioral and physical changes (later) ([2]; 7.5 mg/kg single ip dose): Normal behavior and activities. | Mortality ([2]; 12.5 mg/kg single ip dose): No | Observation of mice behavioral and physical changes (after injection) ([2]; 12.5 mg/kg single ip dose): After drug injection, mouse stayed at corner of its cage but resumed its normal behavior and physical activities after 45 min. Body movement happened. It showed normal behavior patterns when provoked. | Observation of mice behavioral and physical changes (later) ([2]; 12.5 mg/kg single ip dose): Normal behavior and activities. | Mortality ([2]; 17.5 mg/kg single ip dose): No | Observation of mice behavioral and physical changes (after injection) ([2]; 17.5 mg/kg single ip dose): After drug injection, mouse stayed at corner of the cage but resumed its normal behavior and physical activities after 45 min. Body movement happened. It showed normal behavior patterns when provoked. | Observation of mice behavioral and physical changes (later) ([2]; 17.5 mg/kg single ip dose): Normal behavior and activities. | Histopathological examination, spleen ([2]; 35 mg/kg single ip dose): increased in multinucleated giant cells | Mortality ([2]; 35.0 mg/kg single ip dose): Yes | Observation of mice behavioral and physical changes (after injection) ([2]; 35.0 mg/kg single ip dose): Mouse was immobile and staying at one corner of the cage about 30 min after drug injection. After 0.5, 1, 2, 3 & 4 h, it was still immobile. Unresponsive to provocation. | Observation of mice behavioral and physical changes (later) ([2]; 35.0 mg/kg single ip dose): It was found dead on Day 2; blood stained urine noted. | MTD ([2]; single dose treatment, intraperitoneal, estimated): 17.5 mg/kg | LD50 ([2]; single intraperitoneal dose, estimated): 26.25 mg/kg | Histopathological examination, all organs examined ([2]; single ip doses other than 35 mg/kg): no significant morphological changes | CC50 [3]: > 100 µM | cytotoxicity compared with cisplatin (mean LC50) ([3]; NCI60 panel): fivefold more cytotoxic | CC50 ([3]; read-out: LC50, all renal cell lines): 1 to 10 µM | CC50 ([3]; read-out: LC50, leukemia panel (CCRF-CEM, HL-60(TB), K-562, MOLT-2, RPMI-8226, SR)): > 100 µM | GI50 ([3]; read-out: mean GI50, NCI60 panel, 48 h): 1.51 µM | CC50 ([3]; read-out: mean LC50, NCI60 panel, 48 h): 9.12 µM | concentrations at which cytotoxicity is exhibited (rat primary hepatocytes): over 3 μM | pIC50 (rat primary hepatocytes; read-out: IC50 (cytotoxic concentration that kills 50% of the cells), resazurin assay): 5.33 | Histopathological examination, all organs [4]: no significant morphological changes | body weight [4]: no significant reduction of body weight | Mortality ([4]; 14 days further observation): No mortality | weight of vital organs ([4]; day 28): not significantly affected | site of injections ([4]; disappeared during the 14-day observation): some inflammation and induration
